PubChem BioAssay (NCI)
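Cells were grown in 96-well plates and exposed to each compound for 48 hours at five concentrations; endpoints were interpolated linearly between bracketing concentrations, or set to the highest concentration if not reached. GI50 marks 50% less growth. TGI is the concentration that stops growth completely.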

These molecules were tested on PC-3 prostate (assay: NCI tumour cell line growth inhibition, 48 h).
With `Cn1cc(C2=C(c3cn(CCCCO)c4ccccc34)C(=O)NC2=O)c2ccccc21` the GI50 was 9.38 µM and the TGI was over 25 µM.

The molecules below were run on HCC-2998 colon (assay: NCI tumour cell line growth inhibition, 48 h).
Molecule `COc1ccc(/C=C2/N=C(c3ccccc3)N(c3c(C)n(C)n(-c4ccccc4)c3=O)C2=O)cc1OC` has a GI50 of over 100 µM and a TGI of over 100 µM.
`C[C@@H]1CC[C@@H]2[C@@H]1[C@H](OC(=O)/C=C/c1ccccc1)[C@]1(C3CCCCC3)C[C@@H](OC(=O)CO)[C@@]2(C)O1` showed a GI50 of 1.94 µM and a TGI of 3.92 µM.
For `CCCN1C(=O)N(CCC)C2C1NC(=S)N2/N=C/C=C/c1ccccc1OC` (stereo not given), the GI50 was 2.36 µM and the TGI was 65.1 µM.
`COc1cc2c(cc1OCCCNC(=O)c1cccc3c(=O)c4ccccc4[nH]c13)N=C[C@@H]1CCCN1C2=O` showed a GI50 of under 0.0103 µM and a TGI of 0.0321 µM.
Molecule `COc1cc2c(c(OC)c1OC)-c1ccc(SC)c(=O)cc1C(NC=O)CC2` (stereo not given) has a TGI of over 100 µM.
Molecule `CCSc1ncnc2c1ncn2C1OC(CO)C(O)C1O` (stereo not given) has a GI50 of 0.203 µM and a TGI of 7.35 µM.
Molecule `O=C(CSc1nc2ccccc2nc1-c1ccccc1)Nc1ccc(F)cc1` has a GI50 of 49.6 µM and a TGI of over 100 µM.
`CC[C@H]1[C@@H]2C=C[C@@H]3[C@H]4C/C=C\C(=O)NCCC[C@@H]5NC(=O)/C(=C(O)/C=C/[C@@H]4C[C@@H]3[C@H]2C[C@H]1C)C5=O` was tested, and the GI50 was 1.8 µM and the TGI was 3.62 µM.
`O=C1Nc2ccccc2/C1=N\[O-].O=C1Nc2ccccc2/C1=N\[O-].[Cu+2]` was tested, and the GI50 was over 100 µM and the TGI was over 100 µM.
`CN1C(=O)N(C)C2C1NN=c1s/c(=C\c3ccc(Cl)cc3Cl)c(=O)n12` (stereo not given) was tested, and the GI50 was 0.281 µM and the TGI was 15.5 µM.
`Cc1ccc(NC(=O)CC2CC2)cc1-c1ccc(C(=O)NCC2CC2)cc1` gave a GI50 of over 25 µM and a TGI of over 25 µM.
`CCOC(=O)Nc1ccc(C)c(NC(=O)OCC)c1` was tested, and the TGI was over 100 µM.
For `CNCC#Cc1c(F)ccc2c1/C(=C/c1[nH]ccc1OC)C(=O)N2`, the GI50 was 0.398 µM and the TGI was 1.63 µM.
Work on `Cn1cc(C2=C(c3cn(CCCCO)c4ccccc34)C(=O)NC2=O)c2ccccc21` yielded a GI50 of 16.3 µM and a TGI of over 25 µM.

What follows are molecules tested on M14 melanoma (assay: NCI tumour cell line growth inhibition, 48 h).
`COc1ccc(/C=C2/N=C(c3ccccc3)N(c3c(C)n(C)n(-c4ccccc4)c3=O)C2=O)cc1OC` showed a GI50 of over 100 µM and a TGI of over 100 µM.
In the case of `C[C@@H]1CC[C@@H]2[C@@H]1[C@H](OC(=O)/C=C/c1ccccc1)[C@]1(C3CCCCC3)C[C@@H](OC(=O)CO)[C@@]2(C)O1`, the GI50 is reported as 3.57 µM and the TGI is reported as 15.2 µM.
With `CCCN1C(=O)N(CCC)C2C1NC(=S)N2/N=C/C=C/c1ccccc1OC` (stereo not given) the GI50 was 0.455 µM and the TGI was over 100 µM.
With `COc1cc2c(cc1OCCCNC(=O)c1cccc3c(=O)c4ccccc4[nH]c13)N=C[C@@H]1CCCN1C2=O` the GI50 was under 0.01 µM and the TGI was under 0.01 µM.
Work on `COc1cc2c(c(OC)c1OC)-c1ccc(SC)c(=O)cc1C(NC=O)CC2` (stereo not given) yielded a TGI of over 21.5 µM.
`CCSc1ncnc2c1ncn2C1OC(CO)C(O)C1O` (stereo not given) showed a GI50 of 0.589 µM and a TGI of over 100 µM.
Work on `O=C(CSc1nc2ccccc2nc1-c1ccccc1)Nc1ccc(F)cc1` yielded a GI50 of over 100 µM and a TGI of over 100 µM.
With `CC[C@H]1[C@@H]2C=C[C@@H]3[C@H]4C/C=C\C(=O)NCCC[C@@H]5NC(=O)/C(=C(O)/C=C/[C@@H]4C[C@@H]3[C@H]2C[C@H]1C)C5=O` the GI50 was 1.58 µM and the TGI was 3.08 µM.
With `O=C1Nc2ccccc2/C1=N\[O-].O=C1Nc2ccccc2/C1=N\[O-].[Cu+2]` the GI50 was over 100 µM and the TGI was over 100 µM.
In the case of `CN1C(=O)N(C)C2C1NN=c1s/c(=C\c3ccc(Cl)cc3Cl)c(=O)n12` (stereo not given), the GI50 is reported as 0.167 µM and the TGI is reported as over 37.9 µM.
In the case of `Cc1ccc(NC(=O)CC2CC2)cc1-c1ccc(C(=O)NCC2CC2)cc1`, the GI50 is reported as over 25 µM and the TGI is reported as over 25 µM.
Work on `CCOC(=O)Nc1ccc(C)c(NC(=O)OCC)c1` yielded a TGI of over 100 µM.
For `CNCC#Cc1c(F)ccc2c1/C(=C/c1[nH]ccc1OC)C(=O)N2`, the GI50 was 0.181 µM and the TGI was 1.48 µM.
`Cn1cc(C2=C(c3cn(CCCCO)c4ccccc34)C(=O)NC2=O)c2ccccc21` gave a GI50 of 16.6 µM and a TGI of over 25 µM.

These molecules were tested on NCI/ADR-RES ovarian (assay: NCI tumour cell line growth inhibition, 48 h).
Molecule `COc1ccc(/C=C2/N=C(c3ccccc3)N(c3c(C)n(C)n(-c4ccccc4)c3=O)C2=O)cc1OC` has a GI50 of over 100 µM and a TGI of over 100 µM.
`C[C@@H]1CC[C@@H]2[C@@H]1[C@H](OC(=O)/C=C/c1ccccc1)[C@]1(C3CCCCC3)C[C@@H](OC(=O)CO)[C@@]2(C)O1` was tested, and the GI50 was 0.515 µM and the TGI was 5.2 µM.
Molecule `CCCN1C(=O)N(CCC)C2C1NC(=S)N2/N=C/C=C/c1ccccc1OC` (stereo not given) has a GI50 of 0.498 µM and a TGI of over 100 µM.
`COc1cc2c(cc1OCCCNC(=O)c1cccc3c(=O)c4ccccc4[nH]c13)N=C[C@@H]1CCCN1C2=O` showed a GI50 of 0.379 µM and a TGI of over 26.4 µM.
`COc1cc2c(c(OC)c1OC)-c1ccc(SC)c(=O)cc1C(NC=O)CC2` (stereo not given) gave a TGI of 0.273 µM.
In the case of `CCSc1ncnc2c1ncn2C1OC(CO)C(O)C1O` (stereo not given), the GI50 is reported as 0.432 µM and the TGI is reported as over 57.1 µM.
`O=C(CSc1nc2ccccc2nc1-c1ccccc1)Nc1ccc(F)cc1` gave a GI50 of 29.9 µM and a TGI of over 100 µM.
Molecule `CC[C@H]1[C@@H]2C=C[C@@H]3[C@H]4C/C=C\C(=O)NCCC[C@@H]5NC(=O)/C(=C(O)/C=C/[C@@H]4C[C@@H]3[C@H]2C[C@H]1C)C5=O` has a GI50 of 0.815 µM and a TGI of 2.36 µM.
`O=C1Nc2ccccc2/C1=N\[O-].O=C1Nc2ccccc2/C1=N\[O-].[Cu+2]` showed a GI50 of over 100 µM and a TGI of over 100 µM.
For `CN1C(=O)N(C)C2C1NN=c1s/c(=C\c3ccc(Cl)cc3Cl)c(=O)n12` (stereo not given), the GI50 was 0.13 µM and the TGI was 18.1 µM.
`Cc1ccc(NC(=O)CC2CC2)cc1-c1ccc(C(=O)NCC2CC2)cc1` was tested, and the GI50 was over 25 µM and the TGI was over 25 µM.
Molecule `CCOC(=O)Nc1ccc(C)c(NC(=O)OCC)c1` has a TGI of over 100 µM.
For `CNCC#Cc1c(F)ccc2c1/C(=C/c1[nH]ccc1OC)C(=O)N2`, the GI50 was 0.363 µM and the TGI was 3.27 µM.
`Cn1cc(C2=C(c3cn(CCCCO)c4ccccc34)C(=O)NC2=O)c2ccccc21` was tested, and the GI50 was 11.2 µM and the TGI was over 25 µM.

Each molecule was assayed on K-562 leukemia (assay: NCI tumour cell line growth inhibition, 48 h).
Molecule `COc1ccc(/C=C2/N=C(c3ccccc3)N(c3c(C)n(C)n(-c4ccccc4)c3=O)C2=O)cc1OC` has a GI50 of over 100 µM and a TGI of over 100 µM.
`C[C@@H]1CC[C@@H]2[C@@H]1[C@H](OC(=O)/C=C/c1ccccc1)[C@]1(C3CCCCC3)C[C@@H](OC(=O)CO)[C@@]2(C)O1` was tested, and the GI50 was 3.88 µM and the TGI was 14.6 µM.
With `CCCN1C(=O)N(CCC)C2C1NC(=S)N2/N=C/C=C/c1ccccc1OC` (stereo not given) the GI50 was 0.41 µM and the TGI was over 100 µM.
Work on `COc1cc2c(cc1OCCCNC(=O)c1cccc3c(=O)c4ccccc4[nH]c13)N=C[C@@H]1CCCN1C2=O` yielded a TGI of over 100 µM.
With `COc1cc2c(c(OC)c1OC)-c1ccc(SC)c(=O)cc1C(NC=O)CC2` (stereo not given) the TGI was over 77.2 µM.
In the case of `CCSc1ncnc2c1ncn2C1OC(CO)C(O)C1O` (stereo not given), the GI50 is reported as 3.06 µM and the TGI is reported as over 100 µM.
With `O=C(CSc1nc2ccccc2nc1-c1ccccc1)Nc1ccc(F)cc1` the GI50 was 30.8 µM and the TGI was over 100 µM.
`CC[C@H]1[C@@H]2C=C[C@@H]3[C@H]4C/C=C\C(=O)NCCC[C@@H]5NC(=O)/C(=C(O)/C=C/[C@@H]4C[C@@H]3[C@H]2C[C@H]1C)C5=O` gave a GI50 of 1.96 µM and a TGI of 4.24 µM.
`O=C1Nc2ccccc2/C1=N\[O-].O=C1Nc2ccccc2/C1=N\[O-].[Cu+2]` gave a GI50 of over 100 µM and a TGI of over 100 µM.
For `CN1C(=O)N(C)C2C1NN=c1s/c(=C\c3ccc(Cl)cc3Cl)c(=O)n12` (stereo not given), the GI50 was 0.0473 µM and the TGI was over 50.7 µM.
`Cc1ccc(NC(=O)CC2CC2)cc1-c1ccc(C(=O)NCC2CC2)cc1` was tested, and the GI50 was over 14.1 µM and the TGI was over 25 µM.
For `CCOC(=O)Nc1ccc(C)c(NC(=O)OCC)c1`, the TGI was over 100 µM.
`CNCC#Cc1c(F)ccc2c1/C(=C/c1[nH]ccc1OC)C(=O)N2` gave a GI50 of 0.65 µM and a TGI of 3.61 µM.
`Cn1cc(C2=C(c3cn(CCCCO)c4ccccc34)C(=O)NC2=O)c2ccccc21` gave a GI50 of 9.75 µM and a TGI of over 25 µM.

The molecules below were run on KM12 colon (assay: NCI tumour cell line growth inhibition, 48 h).
`COc1ccc(/C=C2/N=C(c3ccccc3)N(c3c(C)n(C)n(-c4ccccc4)c3=O)C2=O)cc1OC` was tested, and the GI50 was over 100 µM and the TGI was over 100 µM.
With `C[C@@H]1CC[C@@H]2[C@@H]1[C@H](OC(=O)/C=C/c1ccccc1)[C@]1(C3CCCCC3)C[C@@H](OC(=O)CO)[C@@]2(C)O1` the GI50 was 3.1 µM and the TGI was 10.8 µM.
`CCCN1C(=O)N(CCC)C2C1NC(=S)N2/N=C/C=C/c1ccccc1OC` (stereo not given) was tested, and the GI50 was 0.422 µM and the TGI was over 100 µM.
In the case of `COc1cc2c(cc1OCCCNC(=O)c1cccc3c(=O)c4ccccc4[nH]c13)N=C[C@@H]1CCCN1C2=O`, the TGI is reported as 13.2 µM.
`COc1cc2c(c(OC)c1OC)-c1ccc(SC)c(=O)cc1C(NC=O)CC2` (stereo not given) showed a TGI of under 0.0138 µM.
Molecule `CCSc1ncnc2c1ncn2C1OC(CO)C(O)C1O` (stereo not given) has a GI50 of 0.702 µM and a TGI of over 100 µM.
For `O=C(CSc1nc2ccccc2nc1-c1ccccc1)Nc1ccc(F)cc1`, the GI50 was 44.8 µM and the TGI was over 100 µM.
`CC[C@H]1[C@@H]2C=C[C@@H]3[C@H]4C/C=C\C(=O)NCCC[C@@H]5NC(=O)/C(=C(O)/C=C/[C@@H]4C[C@@H]3[C@H]2C[C@H]1C)C5=O` showed a GI50 of 3.03 µM and a TGI of 9.88 µM.
Molecule `O=C1Nc2ccccc2/C1=N\[O-].O=C1Nc2ccccc2/C1=N\[O-].[Cu+2]` has a GI50 of over 100 µM and a TGI of over 100 µM.
`CN1C(=O)N(C)C2C1NN=c1s/c(=C\c3ccc(Cl)cc3Cl)c(=O)n12` (stereo not given) was tested, and the GI50 was 0.134 µM and the TGI was over 75.4 µM.
Molecule `Cc1ccc(NC(=O)CC2CC2)cc1-c1ccc(C(=O)NCC2CC2)cc1` has a GI50 of over 25 µM and a TGI of over 25 µM.
`CCOC(=O)Nc1ccc(C)c(NC(=O)OCC)c1` showed a TGI of over 100 µM.
`CNCC#Cc1c(F)ccc2c1/C(=C/c1[nH]ccc1OC)C(=O)N2` was tested, and the GI50 was 0.0565 µM and the TGI was 2.41 µM.
Work on `Cn1cc(C2=C(c3cn(CCCCO)c4ccccc34)C(=O)NC2=O)c2ccccc21` yielded a GI50 of 7.09 µM and a TGI of over 23 µM.
